From US12202818B2, “Compounds and methods for CD73 modulation and indications therefor” (Opna Bio SA, priority 2020, dated 2025)

Tests used:
[1] = target: T1, Human CD73 (amino acid residues 27-549) (Homo sapiens, UniProt P21589); assay: CD73 enzymatic assay (luciferase-based indirect assay, CellTiter-Glo); assay type: biochemical; conditions: 0.4 nM CD73, 150 μM AMP, 1 hour at room temperature
T1 construct: Human CD73 (amino acid residues 27-549); His tag (N); made in house; host or cells: E. coli
T1 sequence (P21589 27-549): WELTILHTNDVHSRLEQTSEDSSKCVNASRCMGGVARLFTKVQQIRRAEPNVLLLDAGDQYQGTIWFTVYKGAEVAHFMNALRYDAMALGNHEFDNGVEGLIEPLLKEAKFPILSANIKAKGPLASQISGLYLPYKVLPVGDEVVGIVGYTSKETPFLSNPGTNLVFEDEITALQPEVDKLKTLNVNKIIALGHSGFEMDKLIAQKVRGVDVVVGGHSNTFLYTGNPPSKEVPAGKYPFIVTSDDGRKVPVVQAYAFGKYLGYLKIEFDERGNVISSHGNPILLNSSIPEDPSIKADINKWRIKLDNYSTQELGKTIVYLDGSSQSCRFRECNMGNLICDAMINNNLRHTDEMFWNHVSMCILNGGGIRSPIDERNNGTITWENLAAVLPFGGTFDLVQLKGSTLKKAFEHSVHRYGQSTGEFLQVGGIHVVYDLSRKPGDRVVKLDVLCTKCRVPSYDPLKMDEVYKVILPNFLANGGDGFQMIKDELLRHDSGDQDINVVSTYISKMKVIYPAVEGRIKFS
Protocol: CD73 enzymatic activity was measured in a luciferase-based indirect assay using CellTiter-Glo® system from Promega. The luciferase reaction in the presence of ATP is inhibited by AMP, a primary substrate of CD73. Addition of CD73 enzyme to the reaction converts AMP to adenosine, and release the inhibition, producing a luminescent signal. Inhibition of CD73 leads to the decrease of this luminescent signal.
Human CD73 (amino acid residues 27-549) with N-Terminal His tag was purified in E. coli. All the assay components were prepared in 50 mM HEPEs buffer (pH 7.4) with 0.01% Tween-20. The CD73 enzymatic assay was performed using 0.4 nM CD73 and 150 μM AMP. 9.5 μL of CD73 protein and 9.5 μL of AMP were added to the wells of a 384 well plate containing lpL of various concentrations of test compound or DMSO vehicle and incubated for 1 hour at room temperature. 16 wells containing CD73, AMP and 5% DMSO served as high control. 16 wells containing AMP and 5% DMSO served as low control. Enzymatic reaction was stopped and AMP level was measured indirectly by adding 5 μL of CellTiter-Glo® 2.0 reagent and 5 μL of ATP with a final concentration of 1 μM. Following incubation of the plate at room temperature for 30 minutes, luminescent signal was read on a Tecan plate reader. The percentage inhibition at individual concentrations relative to high and low controls was calculated. The data were analyzed by using nonlinear regression to generate IC50 values.

human CD73 = target: T2, human CD73 (Homo sapiens, UniProt P21589); assay: Inhibitor activity against CD73 in cell based assay (CD73 expressing CHO-K1 cells); conditions: CHO-K1 cells expressing human CD73, 150 μM AMP, 4 hours of incubation; read-out: CHO-K1 CELL_VARIANT: CD73 IC50
T2 construct: expressed in transfected cells
T2 sequence (P21589 27-549): T1 sequence (P21589 27-549)
Protocol: Determine Inhibitor Activity Against CD73 in Cell Based Assay
CD73 expressing CHO-K1 cell clones were generated upon stable transfection of a plasmid expressing human CD73 under the control of CMV promoter. Cells were selected in Ham's F-12K (Kaighn's) media supplemented with 10% fetal bovine serum and 1 mg/ml G418 at 37° C. in a humidified incubator supplied with 5% CO2. The assays were performed as follows. Cells were seeded in a 96 well plate in 50 μL of culture media at a density of 1×10^4 per well. Compound at a maximal concentration of 5 mM was serially diluted 1:3 in DMSO for a total of 8 point titration. A 2 μL aliquot of each dilution point was added to […] culture media and 25 µL was added to each well, providing 10 μM compound at the maximum concentration point. AMP was diluted in culture media and 25 μL was added to each well with a final concentration of 150 μM. 4 wells containing 0.2% DMSO treated cells and AMP served as high controls and 4 wells containing media only with 0.2% DMSO and AMP served as low controls. After 4 hours of incubation, 20 μL of the supernatant was transferred to a 384 well plate. AMP level in supernatant was measured indirectly by adding 5 μL of CellTiter-Glo® 2.0 reagent and 5 μL of ATP with a final concentration of 1 μM. Following incubation of plate at room temperature for 30 minutes, luminescent signal was read on a Tecan plate reader. The percentage inhibition at individual concentrations relative to high and low controls was calculated. The data were analyzed by using nonlinear regression to generate ICso values.

Row | IC50 [1] [µM] | IC50 (human CD73) [µM] | SMILES
1 | 0.001 to 10 | 0.001 to 10 | Cc1cc(S(=O)(=O)NC2CC2)cc(F)c1-c1ccnc(O[C@@H]2CCN(c3cn[nH]c(=O)c3Cl)C2)c1 [P-0224, (R)-4-(2-((1-(5-chloro-6-oxo-1,6-dihydropyridazin-4-yl)pyrrolidin-3-yl)oxy)pyridin-4-yl)-N-cyclopropyl-3-fluoro-5-methylbenzenesulfonamide]
2 | 0.001 to 10 | 0.001 to 10 | Cc1nn(C)c(C)c1-c1cc(O[C@@H]2CCN(c3cn[nH]c(=O)c3Cl)C2)ccn1 [P-0137, (R)-4-chloro-5-(3-((2-(1,3,5-trimethyl-1H-pyrazol-4-yl)pyridin-4-yl)oxy)pyrrolidin-1-yl)pyridazin-3(2H)-one]
3 | 0.001 to 10 | 0.001 to 10 | Cc1noc(C)c1-c1cc(O[C@@H]2CCN(c3cn[nH]c(=O)c3Cl)C2)c(F)cn1 [P-0118, (R)-4-chloro-5-(3-((2-(3,5-dimethylisoxazol-4-yl)-5-fluoropyridin-4-yl)oxy)pyrrolidin-1-yl)pyridazin-3(2H)-one]
4 | 0.001 to 10 | 0.001 to 10 | Cc1nn(CC2CCCO2)c(C)c1-c1ccnc(O[C@@H]2CCN(c3cn[nH]c(=O)c3Cl)C2)c1 (stereo partly drawn) [P-0042, 4-chloro-5-((3R)-3-((4-(3,5-dimethyl-1-((tetrahydrofuran-2-yl)methyl)-1H-pyrazol-4-yl)pyridin-2-yl)oxy)pyrrolidin-1-yl)pyridazin-3(2H)-one]
5 | 0.001 to 10 | 0.001 to 10 | Cc1nn(C)c(C)c1-c1ccnc(O[C@@H]2CCN(c3cn[nH]c(=O)c3)C2)c1 [P-0113, (R)-5-(3-((4-(1,3,5-trimethyl-1H-pyrazol-4-yl)pyridin-2-yl)oxy)pyrrolidin-1-yl)pyridazin-3(2H)-one]
6 | 0.001 to 10 | 0.001 to 10 | O=c1[nH]ncc(N2CC[C@@H](Oc3cc(N4CCC(NS(=O)(=O)C5CC5)CC4)ccn3)C2)c1Cl [P-0221, (R)-N-(1-(2-((1-(5-chloro-6-oxo-1,6-dihydropyridazin-4-yl)pyrrolidin-3-yl)oxy)pyridin-4-yl)piperidin-4-yl)cyclopropanesulfonamide]
7 | 0.001 to 10 | 0.001 to 10 | CCCNS(=O)(=O)c1ccc(-c2ccnc(O[C@@H]3CCN(c4cn[nH]c(=O)c4Cl)C3)c2)c(C)c1 [P-0240, (R)-4-(2-((1-(5-chloro-6-oxo-1,6-dihydropyridazin-4-yl)pyrrolidin-3-yl)oxy)pyridin-4-yl)-3-methyl-N-propylbenzenesulfonamide]
8 | 0.001 to 10 | 0.001 to 10 | CCCS(=O)(=O)N1CCN(c2ccnc(O[C@@H]3CCN(c4cn[nH]c(=O)c4Cl)C3)c2)CC1 [P-0239, (R)-4-chloro-5-(3-((4-(4-(propylsulfonyl)piperazin-1-yl)pyridin-2-yl)oxy)pyrrolidin-1-yl)pyridazin-3(2H)-one]
9 | 0.001 to 10 | 0.001 to 10 | O=c1[nH]ncc(N2CC[C@@H](Oc3cc(-c4ccc(S(=O)(=O)N5CCCC5)cc4)ccn3)C2)c1Cl [P-0246, (R)-4-chloro-5-(3-((4-(4-(pyrrolidin-1-ylsulfonyl)phenyl)pyridin-2-yl)oxy)pyrrolidin-1-yl)pyridazin-3(2H)-one]
10 | 0.001 to 10 | 0.001 to 10 | CC1COCCN1c1ccnc(O[C@@H]2CCN(c3cn[nH]c(=O)c3Cl)C2)c1 (stereo partly drawn) [P-0092, 4-chloro-5-((3R)-3-((4-(3-methylmorpholino)pyridin-2-yl)oxy)pyrrolidin-1-yl)pyridazin-3(2H)-one]
11 | 0.001 to 10 | 0.001 to 10 | Cc1nn(CC23CC(C#N)(C2)C3)c(C)c1-c1ccnc(O[C@@H]2CCN(c3cnn(CCO)c(=O)c3Cl)C2)c1 [P-0034, (R)-3-((4-(2-((1-(5-chloro-1-(2-hydroxyethyl)-6-oxo-1,6-dihydropyridazin-4-yl)pyrrolidin-3-yl)oxy)pyridin-4-yl)-3,5-dimethyl-1H-pyrazol-1-yl)methyl)bicyclo[1.1.1]pentane-1-carbonitrile]
12 | 0.001 to 10 | 0.001 to 10 | Cc1nn(C2COC2)c(C)c1-c1ccnc(O[C@@H]2CCN(c3cn[nH]c(=O)c3Cl)C2)c1 [P-0070, (R)-4-chloro-5-(3-((4-(3,5-dimethyl-1-(oxetan-3-yl)-1H-pyrazol-4-yl)pyridin-2-yl)oxy)pyrrolidin-1-yl)pyridazin-3(2H)-one]
13 | 0.001 to 10 | 0.001 to 10 | O=c1[nH]ncc(N2CC[C@@H](Oc3cc(-c4ccc(C(F)(F)F)cc4Cl)ccn3)C2)c1Cl [P-0232, (R)-4-chloro-5-(3-((4-(2-chloro-4-(trifluoromethyl)phenyl)pyridin-2-yl)oxy)pyrrolidin-1-yl)pyridazin-3(2H)-one]
14 | 0.001 to 10 | 0.001 to 10 | N#CCC1CCN(c2ccnc(O[C@@H]3CCN(c4cn[nH]c(=O)c4Cl)C3)c2)CC1 [P-0030, (R)-2-(1-(2-((1-(5-chloro-6-oxo-1,6-dihydropyridazin-4-yl)pyrrolidin-3-yl)oxy)pyridin-4-yl)piperidin-4-yl)acetonitrile]
15 | 0.001 to 10 | 0.001 to 10 | Cc1nn(CC(C)(CO)CCl)c(C)c1-c1cc(F)nc(O[C@@H]2CCN(c3cn[nH]c(=O)c3Cl)C2)c1 (stereo partly drawn) [P-0185, 4-chloro-5-((3R)-3-((4-(1-(3-chloro-2-(hydroxymethyl)-2-methylpropyl)-3,5-dimethyl-1H-pyrazol-4-yl)-6-fluoropyridin-2-yl)oxy)pyrrolidin-1-yl)pyridazin-3(2H)-one]
16 | 0.001 to 10 | 0.001 to 10 | Cc1nn(CC(=O)NC2CC2)c(C)c1-c1ccnc(O[C@@H]2CCN(c3cn[nH]c(=O)c3Cl)C2)c1 [P-0040, (R)-2-(4-(2-((1-(5-chloro-6-oxo-1,6-dihydropyridazin-4-yl)pyrrolidin-3-yl)oxy)pyridin-4-yl)-3,5-dimethyl-1H-pyrazol-1-yl)-N-cyclopropylacetamide]
17 | 0.001 to 10 | 0.001 to 10 | O=C(C1CC1)N1CCC(c2ccnc(O[C@@H]3CCN(c4cn[nH]c(=O)c4Cl)C3)c2)CC1 [P-0058, (R)-4-chloro-5-(3-((4-(1-(cyclopropanecarbonyl)piperidin-4-yl)pyridin-2-yl)oxy)pyrrolidin-1-yl)pyridazin-3(2H)-one]
18 | 0.001 to 10 | 0.001 to 10 | Cc1nn(C)c(C)c1-c1ccnc(O[C@H]2CN(c3cnn(CCO)c(=O)c3Cl)C[C@@H]2F)c1 [P-0142, 4-chloro-5-((3S,4S)-3-fluoro-4-((4-(1,3,5-trimethyl-1H-pyrazol-4-yl)pyridin-2-yl)oxy)pyrrolidin-1-yl)-2-(2-hydroxyethyl)pyridazin-3(2H)-one]
19 | 0.001 to 10 | 0.001 to 10 | O=c1[nH]ncc(N2CC[C@@H](Oc3cc(N4CCC(CO)(CCl)CC4)ccn3)C2)c1Cl [P-0083, (R)-4-chloro-5-(3-((4-(4-(chloromethyl)-4-(hydroxymethyl)piperidin-1-yl)pyridin-2-yl)oxy)pyrrolidin-1-yl)pyridazin-3(2H)-one]
20 | 0.001 to 10 | 0.001 to 10 | Cc1nn(C2CC2)c(C)c1-c1ccnc(O[C@@H]2CCN(c3cn[nH]c(=O)c3Cl)C2)c1 [P-0022, (R)-4-chloro-5-(3-((4-(1-cyclopropyl-3,5-dimethyl-1H-pyrazol-4-yl)pyridin-2-yl)oxy)pyrrolidin-1-yl)pyridazin-3(2H)-one]
